Experimental data taken from article PMC3155282 (ACS Medicinal Chemistry Letters, 2011).

What was measured:
CYP2D6 and 2J2 = details: catalyzed by CYP2D6 and 2J2; cited from earlier work
CYP3A4 [1] = target: T1, CYP3A4 (Homo sapiens, UniProt P08684); details: recombinant enzyme
CYP3A4 [2] = target: T1, CYP3A4; details: cited from earlier work
[3] = system: others of recombinant CYP1A2, 2B6, 2C8, 2C9, 2C19, 2D6 and 3A4; details: recombinant enzyme
cytochrome P450s = details: cited from earlier work
CYP2D6 = CYP2D6 (Homo sapiens, UniProt P10635); details: recombinant enzyme
CYP2D6, sequence (P10635 whole entry, canonical isoform): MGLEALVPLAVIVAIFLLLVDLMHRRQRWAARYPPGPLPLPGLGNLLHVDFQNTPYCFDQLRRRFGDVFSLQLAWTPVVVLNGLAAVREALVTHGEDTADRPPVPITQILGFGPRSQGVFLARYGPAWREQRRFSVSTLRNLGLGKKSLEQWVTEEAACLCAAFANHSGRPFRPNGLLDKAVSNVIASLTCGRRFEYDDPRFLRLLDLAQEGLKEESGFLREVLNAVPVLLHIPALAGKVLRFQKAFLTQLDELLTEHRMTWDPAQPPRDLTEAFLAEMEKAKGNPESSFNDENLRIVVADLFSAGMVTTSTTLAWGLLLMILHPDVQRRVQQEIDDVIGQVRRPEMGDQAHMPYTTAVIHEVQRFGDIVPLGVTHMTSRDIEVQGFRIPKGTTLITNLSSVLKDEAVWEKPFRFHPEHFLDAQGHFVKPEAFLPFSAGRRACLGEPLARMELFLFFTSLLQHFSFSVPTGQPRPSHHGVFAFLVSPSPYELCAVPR

CYP2C8 = target: T2, CYP2C8 (Homo sapiens, UniProt P10632); assay: P450 isoform phenotyping assay, parent compound depletion, recombinant CYP2C8; type: in vitro ADME; details: recombinant CYP2C8, 1 µM compound
T2 sequence (P10632 1-490): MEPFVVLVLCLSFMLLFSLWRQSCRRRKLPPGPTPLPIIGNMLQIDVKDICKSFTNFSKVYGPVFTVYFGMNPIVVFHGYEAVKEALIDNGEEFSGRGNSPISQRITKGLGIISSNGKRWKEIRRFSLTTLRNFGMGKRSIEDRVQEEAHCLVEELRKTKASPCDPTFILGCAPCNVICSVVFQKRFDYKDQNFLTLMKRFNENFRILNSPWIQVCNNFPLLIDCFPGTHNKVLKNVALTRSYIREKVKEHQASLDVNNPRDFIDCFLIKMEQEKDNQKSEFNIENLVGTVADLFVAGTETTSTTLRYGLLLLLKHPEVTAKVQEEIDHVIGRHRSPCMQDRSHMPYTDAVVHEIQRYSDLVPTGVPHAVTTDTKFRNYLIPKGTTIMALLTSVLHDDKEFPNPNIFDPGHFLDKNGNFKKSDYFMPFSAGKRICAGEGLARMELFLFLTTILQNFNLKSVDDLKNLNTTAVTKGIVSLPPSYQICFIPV

T1 sequence (P08684 whole entry): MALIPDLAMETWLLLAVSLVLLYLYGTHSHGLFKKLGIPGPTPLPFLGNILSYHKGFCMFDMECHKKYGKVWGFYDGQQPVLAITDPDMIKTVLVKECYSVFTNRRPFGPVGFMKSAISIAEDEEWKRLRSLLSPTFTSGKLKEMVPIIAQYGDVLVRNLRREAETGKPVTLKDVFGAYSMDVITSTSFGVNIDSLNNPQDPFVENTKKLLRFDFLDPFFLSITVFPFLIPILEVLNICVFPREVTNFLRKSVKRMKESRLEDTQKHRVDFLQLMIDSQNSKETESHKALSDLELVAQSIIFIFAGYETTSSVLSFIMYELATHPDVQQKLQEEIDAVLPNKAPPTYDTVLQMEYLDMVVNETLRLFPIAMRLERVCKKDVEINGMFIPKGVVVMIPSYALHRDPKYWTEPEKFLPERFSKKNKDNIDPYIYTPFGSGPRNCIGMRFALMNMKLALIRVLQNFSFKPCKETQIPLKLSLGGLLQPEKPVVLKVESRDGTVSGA

SMILES | conversion from astemizole to O-desmethylastemizole (CYP2D6 and 2J2) [%] | half-life (t1/2) of parent compound depletion from phenotyping assay, 3A4 (CYP3A4 [1]) | conversion from astemizole to benzimidazole hydroxylated metabolite (CYP3A4 [2]) [%] | half-life (t1/2) of parent compound depletion from phenotyping assay, others [3] | N-dealkylation (major or minor pathway) (cytochrome P450s) | half-life (t1/2) of parent compound depletion from phenotyping assay, 2D6 (CYP2D6) | half-life (t1/2) of parent compound depletion from phenotyping assay, 2C8 (CYP2C8) | contribution of CYP2D6 to metabolism (CYP2D6)
COc1ccc(CCN2CCC(Nc3nc4ccccc4n3Cc3ccc(F)cc3)CC2)cc1 [astemizole] | 67 | 3A4 (1.5 m), 2D6 (4.0 m), others (>60 m) | 25 | 3A4 (1.5 m), 2D6 (4.0 m), others (>60 m) | minor | 3A4 (1.5 m), 2D6 (4.0 m), others (>60 m) |  | 
CN1CCC(N(Cc2ccccc2)c2ccccc2)CC1 [bamipine] |  |  |  |  | major |  |  | 
O=C(CCCN1CCC(n2c(O)nc3ccccc32)CC1)c1ccc(F)cc1 [benperidol] |  | 3A4 (3.3 m), 2D6 (10.4 m), 2C8 (43.8 m), others (>60 m) |  | 3A4 (3.3 m), 2D6 (10.4 m), 2C8 (43.8 m), others (>60 m) | major | 3A4 (3.3 m), 2D6 (10.4 m), 2C8 (43.8 m), others (>60 m) | 3A4 (3.3 m), 2D6 (10.4 m), 2C8 (43.8 m), others (>60 m) | 
COc1cc(N)c(Cl)cc1C(=O)NC1CCN(CCCOc2ccc(F)cc2)CC1OC (centres unmarked) [cisapride] |  |  |  | 3A4 (<5 m), others (>60 m) | major |  |  | 
COc1cc(N)c(Cl)cc1C(=O)NC1CCN(Cc2ccccc2)CC1 [clebopride] |  | 3A4 (<5 m), others (>60 m) |  | 3A4 (<5 m), others (>60 m) | major |  |  | 
O=C(NC1CCN(CCc2c[nH]c3ccccc23)CC1)c1ccccc1 [indoramin] |  | 2D6 (<5 m), 3A4 (16.0 m), others (>60 m) |  | 2D6 (<5 m), 3A4 (16.0 m), others (>60 m) | minor | 2D6 (<5 m), 3A4 (16.0 m), others (>60 m) |  | contributed significantly
O=c1[nH]c2ccccc2n1C1CCN(CCCC(c2ccc(F)cc2)c2ccc(F)cc2)CC1 [pimozide] |  | 3A4 (2.7 m), 2D6 (3.2 m), others (>60 m) |  | 3A4 (2.7 m), 2D6 (3.2 m), others (>60 m) | major | 3A4 (2.7 m), 2D6 (3.2 m), others (>60 m) |  | 
CN(c1nc2ccccc2s1)C1CCN(CC(O)COc2ccc(F)cc2)CC1 (centres unmarked) [sabeluzole] |  | 2D6 (1.5 m), 3A4 (<5.0 m), others (>60 m) |  | 2D6 (1.5 m), 3A4 (<5.0 m), others (>60 m) | minor | 2D6 (1.5 m), 3A4 (<5.0 m), others (>60 m) |  | contributed significantly
O=C(CCCN1CCC(n2c(=S)[nH]c3ccccc32)CC1)c1ccc(F)cc1 [timiperone] |  |  |  |  | major |  |  | 
